Data taken from patent publication US20120101110A1, “Diaza-spiro[5.5]undecanes” (priority 2010, published 2012).
Like-named read-outs stand apart in the source and are kept apart here.

Columns and labels:
human orexin 2 receptors [1] = molecular target: T1, human orexin 2 receptors (Homo sapiens, UniProt O43614); test: Calcium accumulation in cells (FLIPR), hOx2R; assay type: cell-based; settings: cells expressing human orexin 2 receptor; inhibition of orexin A-induced calcium accumulation; Cheng and Prusoff correction
T1 sequence (O43614 1-444): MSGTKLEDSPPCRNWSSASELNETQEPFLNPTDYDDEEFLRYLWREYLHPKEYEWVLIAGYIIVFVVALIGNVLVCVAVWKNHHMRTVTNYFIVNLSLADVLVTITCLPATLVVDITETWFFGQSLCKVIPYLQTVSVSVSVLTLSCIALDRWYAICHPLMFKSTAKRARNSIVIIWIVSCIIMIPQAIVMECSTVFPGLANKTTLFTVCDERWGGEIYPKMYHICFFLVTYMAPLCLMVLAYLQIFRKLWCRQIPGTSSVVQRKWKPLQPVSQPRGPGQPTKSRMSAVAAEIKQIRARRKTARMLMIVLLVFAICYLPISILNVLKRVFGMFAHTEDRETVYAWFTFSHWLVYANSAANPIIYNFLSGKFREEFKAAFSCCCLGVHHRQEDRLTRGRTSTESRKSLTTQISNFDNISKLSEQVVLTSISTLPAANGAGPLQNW
Protocol: (§1) Cells expressing human orexin 1 or human orexin 2 receptors, were seeded at 8,000 cells/well in 384 well black-walled clear bottom, poly-D-lysine coated plates. After 24 h, the medium was removed and cells were washed once with phosphate buffered saline and serum-deprived overnight in assay buffer (130 mM NaCl, 5.4 mM KCl, 1.8 mM CaCl2, 0.8 mM MgSO4, 0.9 mM NaH2PO4, 25 mM glucose, 20 mM HEPES, pH 7.4) containing bovine serum albumin (1% w/v).
On the day of the experiment, the cells seeded in black plates were treated with assay buffer containing the Ca^2+sensitive fluorescent dye Fluo-4-AM (2 μM), and probenecid (0.1 mM). After 1 h plates were washed twice with, and resuspended in, assay buffer containing probenecid (0.1 mM) using a multi plate washer. […] Fluorescence measurements were then continued every 1 S for 120 S followed by every 4 S for 240 S.
The measurements were typically made in two sequences:
(§2) Compounds of formula I were tested usually in a concentration range from 10^−9 M to 10^−5 M. In the second round, performed one hour later (to allow for equilibration), Orexin A was tested either in the absence (calibration curves, Orexin A agonist controls) or in the presence of compounds of formula I to determine antagonism.

human orexin 1 receptors [2] = molecular target: T2, human orexin 1 receptors (Homo sapiens, UniProt O43613); test: Radioligand binding assay ([3H]-SB649868 competition), hOx1R; settings: competition with about 1 nM [3H]-SB649868; CHO or HEK cell membranes expressing human orexin 1 receptor
T2 sequence (O43613 1-425): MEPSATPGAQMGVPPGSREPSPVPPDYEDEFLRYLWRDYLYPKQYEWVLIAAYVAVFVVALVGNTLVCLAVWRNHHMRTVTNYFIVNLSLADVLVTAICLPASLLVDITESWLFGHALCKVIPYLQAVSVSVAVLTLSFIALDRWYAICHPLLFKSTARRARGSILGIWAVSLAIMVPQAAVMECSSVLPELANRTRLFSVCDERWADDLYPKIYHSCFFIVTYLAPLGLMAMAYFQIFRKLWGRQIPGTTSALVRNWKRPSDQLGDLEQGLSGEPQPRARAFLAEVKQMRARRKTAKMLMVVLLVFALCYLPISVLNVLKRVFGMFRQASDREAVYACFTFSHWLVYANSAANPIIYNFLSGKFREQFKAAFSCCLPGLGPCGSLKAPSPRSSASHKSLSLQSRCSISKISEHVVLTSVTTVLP
Procedure, shortened: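 Membranes from hOx1R-expressing cells incubated 1 h at room temperature with about 1 nM [3H]-SB649868 and test compound, in triplicate. Buffer was 10 mM HEPES pH 7.5, 0.5% BSA, 5 mM MgCl2, 1 mM CaCl2, 0.05% tween; 10 μM almorexant defined non-specific binding. Filtration then counting of bound radioactivity; values reported as Kd.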

human orexin 2 receptors [3] = molecular target: T1, human orexin 2 receptors; test: Radioligand binding assay ([3H]-SB649868 competition), hOx2R
Procedure, shortened: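 Membranes were incubated 1 h at room temperature in 10 mM HEPES pH 7.5 with 0.5% BSA, 5 mM MgCl2, 1 mM CaCl2 and 0.05% Tween, with about 1 nM [3H]-SB649868 and test compounds in triplicate. Non-specific binding was defined with 10 μM almorexant, and bound radioactivity was counted.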

human orexin 1 receptors [4] = molecular target: T2, human orexin 1 receptors; test: Calcium accumulation in cells (FLIPR), hOx1R; settings: for inhibition at 10 µM: read-out: FLIPR hOx1R % inhibition value
Protocol: as §1
On the day of the experiment, the cells seeded in black plates were treated with assay buffer containing the Ca^2+sensitive fluorescent dye Fluo-4-AM (2 μM), and probenecid (0.1 mM). After 1 h plates were washed twice with, and resuspended in, assay buffer containing probenecid (0.1 mM) using a multi plate washer. The plates were placed into a FLIPR II (Fluorometric Imaging Plate Reader, Molecular Devices, Sunnyvale, Calif., USA) and baseline fluorescence (fluorescence light units, FLU) was measured (5 measurements, 2 S each; laser excitation 488 nm at 0.6-1 W, CCD camera exposure 0.4 s) before addition of buffer alone (basal) or containing test compounds (either compound of formula I alone, agonist alone or agonist in the presence of various concentrations of compounds of formula I). Fluorescence measurements were then continued every 1 S for 120 S followed by every 4 S for 240 S.
as §2
Inhibition data is expressed in Table 2 as Ki [μM], converted by the Cheng and Prusoff correction (Ki=IC50/1+(L/EC50)), where IC50 is the 50% inhibition value determined in concentration response inhibition curves, EC50 is the half maximal activation concentration determined for orexin A in concentration response curves and L is the concentration of orexin A used in inhibition experiments performed in with a submaximal concentration of orexin A in the presence of up to 8 increasing concentrations of compound of formula I. Inhibition data is also expressed in Table 2 as % inhibition value measured at a concentration of 10 μM of selected compounds of formula I.

[5] = competition with about 1 nM [3H]-SB649868, CHO or HEK cell membranes expressing human orexin 2 receptor, read-out: binding hOx2R Kd

Compound | Ki (human orexin 2 receptors [1]) [nM] | Kd (human orexin 1 receptors [2]) [nM] | Kd (human orexin 2 receptors [3]; [5]) [nM] | inhibition at 10 µM (human orexin 1 receptors [4]) [%] | Ki (human orexin 1 receptors [4]) [nM] | Kd (human orexin 2 receptors [3]) [nM]
Cc1cncc(N2CCC3(CCCC(=O)N3Cc3c[nH]c4ccccc34)CC2)n1 [Example 7, 1-((1H-indol-3-yl)methyl)-9-(6-methylpyrazin-2-yl)-1,9-diazaspiro[5.5]undecan-2-one] | 86 | 7440 | 698 | 14 | – | –
Cc1nc(N2CCC3(CCCN(Cc4c[nH]c5ccccc45)C3=O)CC2)ncc1F [Example 102, 2-((1H-indol-3-yl)methyl)-9-(5-fluoro-4-methylpyrimidin-2-yl)-2,9-diazaspiro[5.5]undecan-1-one] | 40 | 1160 | 59 | – | 1070 | –
COc1cccc(-c2sc(C)nc2CN2CCCC3(CCN(c4nc(C)cc(C)n4)CC3)C2=O)c1 [Example 110, 9-(4,6-dimethylpyrimidin-2-yl)-2-((5-(3-methoxyphenyl)-2-methylthiazol-4-yl)methyl)-2,9-diazaspiro[5.5]undecan-1-one] | 3.8 | 236 | 7 | – | 213 | –
Cc1cncc(N2CCC3(CCCN(Cc4c[nH]c5ccccc45)C3=O)CC2)n1 [Example 11, 2-((1H-indol-3-yl)methyl)-9-(6-methylpyrazin-2-yl)-2,9-diazaspiro[5.5]undecan-1-one] | 23 | 6590 | 244 | – | 1390 | –
Cc1cc(C)nc(N2CCC3(CCCN(Cc4c[nH]c5ccc(C#N)cc45)C3=O)CC2)n1 [Example 105, 3-((9-(4,6-dimethylpyrimidin-2-yl)-1-oxo-2,9-diazaspiro[5.5]undecan-2-yl)methyl)-1H-indole-5-carbonitrile] | 3.3 | 655 | 25 | – | 295 | –
COc1cc(C)nc(N2CCC3(CCCN(Cc4n[nH]c5ccccc45)C3=O)CC2)n1 [Example 112, 2-((1H-indazol-3-yl)methyl)-9-(4-methoxy-6-methylpyrimidin-2-yl)-2,9-diazaspiro[5.5]undecan-1-one] | 6.1 | 912 | 82 | – | 255 | –
Cc1cc(C)nc(N2CCC3(CCCN(Cc4cccc5c4OCCO5)C3=O)CC2)n1 [Example 20, 2-((2,3-dihydrobenzo[b][1,4]dioxin-5-yl)methyl)-9-(4,6-dimethylpyrimidin-2-yl)-2,9-diazaspiro[5.5]undecan-1-one] | 42 | 8550 | 211 | – | 2530 | –
Cc1ccnc(N2CCC3(CCCN(Cc4c[nH]c5ccccc45)C3=O)CC2)n1 [Example 12, 2-((1H-indol-3-yl)methyl)-9-(4-methylpyrimidin-2-yl)-2,9-diazaspiro[5.5]undecan-1-one] | 30 | 1170 | 56 | – | 1500 | –
Cc1cc(C#N)nc(N2CCC3(CCCN(Cc4cccc(-c5ncc(C)o5)c4)C3=O)CC2)n1 [Example 37, 6-methyl-2-(2-(3-(5-methyloxazol-2-yl)benzyl)-1-oxo-2,9-diazaspiro[5.5]undecan-9-yl)pyrimidine-4-carbonitrile] | 79 | > 10000 | 1160 | – | 1890 | –
Cc1cc(C)nc(N2CCC3(CCCN(Cc4c[nH]c5ccc(-n6cccn6)cc45)C3=O)CC2)n1 [Example 117, 2-((5-(1H-pyrazol-1-yl)-1H-indol-3-yl)methyl)-9-(4,6-dimethylpyrimidin-2-yl)-2,9-diazaspiro[5.5]undecan-1-one] | 1.3 | 1020 | 27 | – | 37 | –
COc1cccc(-c2nn(C)nc2CN2CCCC3(CCN(c4nc(C)cc(C)n4)CC3)C2=O)n1 [Example 120, 9-(4,6-dimethylpyrimidin-2-yl)-2-((5-(6-methoxypyridin-2-yl)-2-methyl-2H-1,2,3-triazol-4-yl)methyl)-2,9-diazaspiro[5.5]undecan-1-one] | 32 | > 10000 | 197 | 29 | – | –
Cc1ccc2[nH]cc(CN3CCCC4(CCN(c5nc(C)cc(C)n5)CC4)C3=O)c2c1 [Example 104, 9-(4,6-dimethylpyrimidin-2-yl)-2-((5-methyl-1H-indol-3-yl)methyl)-2,9-diazaspiro[5.5]undecan-1-one] | 4.8 | 1020 | 25 | – | 292 | –
Cc1cnc(-c2cccc(CN3CCCC4(CCN(c5cccc(C#N)n5)CC4)C3=O)c2)o1 [Example 39, 6-(2-(3-(5-methyloxazol-2-yl)benzyl)-1-oxo-2,9-diazaspiro[5.5]undecan-9-yl)picolinonitrile] | 29 | 1440 | 367 | – | 533 | –
Cc1cc(C#N)nc(N2CCC3(CCCN(Cc4c[nH]c5ccccc45)C3=O)CC2)n1 [Example 75, 2-(2-((1H-indol-3-yl)methyl)-1-oxo-2,9-diazaspiro[5.5]undecan-9-yl)-6-methylpyrimidine-4-carbonitrile] | 7.2 | > 10000 | 466 | – | 1480 | –
Cc1cc(C)nc(N2CCC3(CCCN(Cc4nc(C)sc4-c4ccccc4)C3=O)CC2)n1 [Example 109, 9-(4,6-dimethylpyrimidin-2-yl)-2-((2-methyl-5-phenylthiazol-4-yl)methyl)-2,9-diazaspiro[5.5]undecan-1-one] | 42 | 2560 | 188 | – | 1370 | –
COCc1ccc2[nH]cc(CN3CCCC4(CCN(c5nc(C)cc(C)n5)CC4)C3=O)c2c1 [Example 116, 9-(4,6-dimethylpyrimidin-2-yl)-2-((5-(methoxymethyl)-1H-indol-3-yl)methyl)-2,9-diazaspiro[5.5]undecan-1-one] | 0.3 | 94 | 2 | – | 33 | –
Cc1cc(C)nc(N2CCC3(CCCN(Cc4c[nH]c5c(C)cccc45)C3=O)CC2)n1 [Example 103, 9-(4,6-dimethylpyrimidin-2-yl)-2-((7-methyl-1H-indol-3-yl)methyl)-2,9-diazaspiro[5.5]undecan-1-one] | 26 | 1770 | 35 | – | 1900 | –
Cc1cc(C)nc(N2CCC3(CCCN(Cc4nn(C)nc4Br)C3=O)CC2)n1 [Example 118, 2-((5-bromo-2-methyl-2H-1,2,3-triazol-4-yl)methyl)-9-(4,6-dimethylpyrimidin-2-yl)-2,9-diazaspiro[5.5]undecan-1-one] | 79 | 2110 | 178 | – | 3580 | –
CCc1cc(C)nc(N2CCC3(CCCN(Cc4c[nH]c5ccccc45)C3=O)CC2)n1 [Example 111, 2-((1H-indol-3-yl)methyl)-9-(4-ethyl-6-methylpyrimidin-2-yl)-2,9-diazaspiro[5.5]undecan-1-one] | 11 | 835 | 44 | – | 761 | –
Cc1cc(C)nc(N2CCC3(CCCN(Cc4cccc(-c5noc(C)n5)c4)C3=O)CC2)n1 [Example 22, 9-(4,6-dimethylpyrimidin-2-yl)-2-(3-(5-methyl-1,2,4-oxadiazol-3-yl)benzyl)-2,9-diazaspiro[5.5]undecan-1-one] | 31 | 1300 | 151 | – | 755 | –
COc1ccnc(N2CCC3(CCCN(Cc4ccccc4-c4nc(C)no4)C3=O)CC2)n1 [Example 114, 9-(4-methoxypyrimidin-2-yl)-2-(2-(3-methyl-1,2,4-oxadiazol-5-yl)benzyl)-2,9-diazaspiro[5.5]undecan-1-one] | 30 | 2140 | 231 | – | 1530 | –
COCc1cccc(-c2nn(C)nc2CN2CCCC3(CCN(c4nc(C)cc(C)n4)CC3)C2=O)c1 [Example 119, 9-(4,6-dimethylpyrimidin-2-yl)-2-((5-(3-(methoxymethyl)phenyl)-2-methyl-2H-1,2,3-triazol-4-yl)methyl)-2,9-diazaspiro[5.5]undecan-1-one] | 3.9 | 1330 | – | – | 868 | 28
